Experimental data reported in ChEMBL document CHEMBL6127154, “Pursuing Polypharmacology: Benzothiopyranoindoles as G-Quadruplex Stabilizers and Topoisomerase I Inhibitors for Effective Anticancer Strategies” (ACS Med Chem Lett, 2024).
The source made the active and inactive calls. No cut-off for these calls is given here.

Assays:
SK-MEL-28 = assay: Antiproliferative activity against human SK-MEL-28 cells assessed as growth inhibition incubated for 48 hrs by SRB assay; assay type: functional
SF-295 = assay: Antiproliferative activity against human SF-295 cells assessed as growth inhibition incubated for 48 hrs by SRB assay; assay type: functional
KM12 = assay: Antiproliferative activity against human KM12 cells assessed as growth inhibition incubated for 48 hrs by SRB assay; assay type: functional
Quadruplex DNA [1] = assay: Thermal stabilization of human c-Kit2 G4 quadruplex DNA assessed as change in melting temperature (deltaT1/2) incubated for 10 mins by circular dichroism spectroscopic analysis (reference value: 62.4 +/-0.1 degreeC); assay type: nucleic-acid assay
Quadruplex DNA [2] = assay: Thermal stabilization of human Tel23-p G4 quadruplex DNA assessed as change in melting temperature (deltaT1/2) incubated for 10 mins by circular dichroism spectroscopic analysis (reference value: 68.2 +/- 0.1 degreeC); assay type: nucleic-acid assay
A498 = assay: Antiproliferative activity against human A498 cells assessed as growth inhibition incubated for 48 hrs by SRB assay; assay type: functional
HCT-116 [3] = assay: Induction of DNA damage in human HCT-116 cells assessed as increase in 53BP1 foci positive cells incubated for 24 hrs by immunofluorescence staining based analysis; assay type: functional, cell-based
PC-3 = assay: Antiproliferative activity against human PC-3 cells assessed as growth inhibition incubated for 48 hrs by SRB assay; assay type: functional
SW-620 = assay: Antiproliferative activity against human SW620 cells assessed as growth inhibition incubated for 48 hrs by SRB assay; assay type: functional
SN12C = assay: Antiproliferative activity against human SN12C cells assessed as growth inhibition incubated for 48 hrs by SRB assay; assay type: functional
OVCAR-4 = assay: Antiproliferative activity against human OVCAR-4 cells assessed as growth inhibition incubated for 48 hrs by SRB assay; assay type: functional
K562 = assay: Antiproliferative activity against human K562 cells assessed as growth inhibition incubated for 48 hrs by SRB assay; assay type: functional
UACC-62 = assay: Antiproliferative activity against human UACC-62 cells assessed as growth inhibition incubated for 48 hrs by SRB assay; assay type: functional
SK-OV-3 = assay: Antiproliferative activity against human SK-OV-3 cells assessed as growth inhibition incubated for 48 hrs by SRB assay; assay type: functional
UO-31 = assay: Antiproliferative activity against human UO-31 cells assessed as growth inhibition incubated for 48 hrs by SRB assay; assay type: functional
HCT-116 [4] = assay: Induction of DNA damage in human HCT-116 cells assessed as increase in gammaH2AX level incubated for 24 hrs by immunofluorescence staining based analysis; assay type: functional, cell-based
[5] = biological target: DNA topoisomerase 1 (Homo sapiens) (UniProt P11387); assay: Inhibition of human Topoisomerase 1 assessed as relaxation of supercoiled plasmid pBR322 DNA at 2.5 uM incubated for 1 hr by ethidium bromide staining based agarose gel electrophoresis
Chain of DNA topoisomerase 1 (Homo sapiens) (P11387 whole entry): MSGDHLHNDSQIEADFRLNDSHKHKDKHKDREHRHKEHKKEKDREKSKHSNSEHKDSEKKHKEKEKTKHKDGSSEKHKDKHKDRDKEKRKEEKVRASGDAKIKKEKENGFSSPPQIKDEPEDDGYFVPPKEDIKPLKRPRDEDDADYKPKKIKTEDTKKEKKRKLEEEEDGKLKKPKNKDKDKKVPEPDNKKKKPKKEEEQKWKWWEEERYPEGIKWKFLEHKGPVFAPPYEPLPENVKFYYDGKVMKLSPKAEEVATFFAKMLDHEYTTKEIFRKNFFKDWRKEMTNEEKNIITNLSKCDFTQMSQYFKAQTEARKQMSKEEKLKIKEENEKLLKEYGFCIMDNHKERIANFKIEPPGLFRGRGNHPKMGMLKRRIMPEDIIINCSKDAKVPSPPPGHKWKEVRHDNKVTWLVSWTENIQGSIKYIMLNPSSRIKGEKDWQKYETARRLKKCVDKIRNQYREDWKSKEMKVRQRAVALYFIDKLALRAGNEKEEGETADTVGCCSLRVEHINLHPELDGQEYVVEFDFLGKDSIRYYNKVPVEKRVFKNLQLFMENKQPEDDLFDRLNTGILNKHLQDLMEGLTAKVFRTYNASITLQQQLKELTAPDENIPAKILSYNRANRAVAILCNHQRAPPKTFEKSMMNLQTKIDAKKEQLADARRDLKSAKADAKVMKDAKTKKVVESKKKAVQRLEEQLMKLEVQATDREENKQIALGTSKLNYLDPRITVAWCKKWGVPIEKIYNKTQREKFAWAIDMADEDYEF

Quadruplex DNA [6] = assay: Thermal stabilization of human Tel23-hy G4 quadruplex DNA assessed as change in melting temperature (deltaT1/2) incubated for 10 mins by circular dichroism spectroscopic analysis (reference value: 48 +/- 0.1 degreeC); assay type: nucleic-acid assay
DU-145 = assay: Antiproliferative activity against human DU-145 cells assessed as growth inhibition incubated for 48 hrs by SRB assay; assay type: functional
HCT-116 [7] = assay: Antiproliferative activity against human HCT-116 cells assessed as growth inhibition incubated for 48 hrs by SRB assay; assay type: functional
MDA-MB-468 = assay: Antiproliferative activity against human MDA-MB-468 cells assessed as growth inhibition incubated for 48 hrs by SRB assay; assay type: functional
SNB-75 = assay: Antiproliferative activity against human SNB-75 cells assessed as growth inhibition incubated for 48 hrs by SRB assay; assay type: functional
SK-MEL-2 = assay: Antiproliferative activity against human SK-MEL-2 cells assessed as growth inhibition incubated for 48 hrs by SRB assay; assay type: functional
SF-268 = assay: Antiproliferative activity against human SF-268 cells assessed as growth inhibition incubated for 48 hrs by SRB assay; assay type: functional
OVCAR-8 = assay: Antiproliferative activity against human OVCAR-8 cells assessed as growth inhibition incubated for 48 hrs by SRB assay; assay type: functional
ACHN = assay: Antiproliferative activity against human ACHN cells assessed as growth inhibition incubated for 48 hrs by SRB assay; assay type: functional
IGROV-1 = assay: Antiproliferative activity against human IGROV-1 cells assessed as growth inhibition incubated for 48 hrs by SRB assay; assay type: functional
EKVX = assay: Antiproliferative activity against human EKVX cells assessed as growth inhibition incubated for 48 hrs by SRB assay; assay type: functional
NCI-H460 = assay: Antiproliferative activity against human NCI-H460 cells assessed as growth inhibition incubated for 48 hrs by SRB assay; assay type: functional
TK-10 = assay: Antiproliferative activity against human TK-10 cells assessed as growth inhibition incubated for 48 hrs by SRB assay; assay type: functional
T47D = assay: Antiproliferative activity against human T47D cells assessed as growth inhibition incubated for 48 hrs by SRB assay; assay type: functional
HOP-92 = assay: Antiproliferative activity against human HOP-92 cells assessed as growth inhibition incubated for 48 hrs by SRB assay; assay type: functional
Quadruplex DNA [8] = assay: Stabilization of human telomeric 26 hybrid G4 quadruplex DNA incubated for 10 mins by circular dichroism spectroscopic analysis; assay type: nucleic-acid assay
MCF7 = assay: Antiproliferative activity against human MCF7 cells assessed as growth inhibition incubated for 48 hrs by SRB assay; assay type: functional
UACC-257 = assay: Antiproliferative activity against human UACC-257 cells assessed as growth inhibition incubated for 48 hrs by SRB assay; assay type: functional
SR = assay: Antiproliferative activity against human SR cells assessed as growth inhibition incubated for 48 hrs by SRB assay; assay type: functional
NCI-H322M = assay: Antiproliferative activity against human NCI-H322M cells assessed as growth inhibition incubated for 48 hrs by SRB assay; assay type: functional
HOP-62 = assay: Antiproliferative activity against human HOP-62 cells assessed as growth inhibition incubated for 48 hrs by SRB assay; assay type: functional
HT-29 = assay: Antiproliferative activity against human HT-29 cells assessed as growth inhibition incubated for 48 hrs by SRB assay; assay type: functional
RXF 393 = assay: Antiproliferative activity against human RXF 393 cells assessed as growth inhibition incubated for 48 hrs by SRB assay; assay type: functional
Malme-3M = assay: Antiproliferative activity against human Malme-3M cells assessed as growth inhibition incubated for 48 hrs by SRB assay; assay type: functional
Quadruplex DNA [9] = assay: Stabilization of human telomeric 23 hybrid G4 quadruplex DNA incubated for 10 mins by circular dichroism spectroscopic analysis; assay type: nucleic-acid assay
OVCAR-5 = assay: Antiproliferative activity against human OVCAR-5 cells assessed as growth inhibition incubated for 48 hrs by SRB assay; assay type: functional
Hs-578T = assay: Antiproliferative activity against human Hs-578T cells assessed as growth inhibition incubated for 48 hrs by SRB assay; assay type: functional
MOLT-4 = assay: Antiproliferative activity against human MOLT-4 cells assessed as growth inhibition incubated for 48 hrs by SRB assay; assay type: functional
OVCAR-3 = assay: Antiproliferative activity against human OVCAR-3 cells assessed as growth inhibition incubated for 48 hrs by SRB assay; assay type: functional

CCN(CC)CCn1c2ccc(O)cc2c2sc3cc(OC)ccc3c(=O)c21
GI (SK-MEL-28): 1.8 µM | GI (SF-295): 5.35 µM | GI (KM12): 1.84 µM | ΔTm (Quadruplex DNA [1]): > 20 °C | ΔTm (Quadruplex DNA [2]): > 20 °C | GI (A498): 3.08 µM | Activity (HCT-116 [3]): Active | GI (PC-3): 1.82 µM | GI (SW-620): 0.675 µM | GI (SN12C): 5.83 µM | GI (OVCAR-4): 1.81 µM | GI (K562): 1.24 µM | GI (UACC-62): 1.89 µM | GI (SK-OV-3): 13.4 µM | GI (UO-31): 1.9 µM | Activity (HCT-116 [4]): Active | inhibition [5]: Active | ΔTm (Quadruplex DNA [6]): 9.6 °C | GI (DU-145): 1.71 µM | GI (HCT-116 [7]): 1.07 µM | GI (MDA-MB-468): 1.54 µM | GI (SNB-75): 2.39 µM | GI (SK-MEL-2): 9.15 µM | GI (SF-268): 7.34 µM | GI (OVCAR-8): 2.1 µM | GI (ACHN): 1.13 µM | GI (IGROV-1): 1.59 µM | GI (EKVX): 1.67 µM | GI (NCI-H460): 1.22 µM | GI (TK-10): 9.05 µM | GI (T47D): 14.2 µM | GI (HOP-92): 2.58 µM | Activity (Quadruplex DNA [8]): Active | GI (MCF7): 1.18 µM | GI (UACC-257): 2.1 µM | GI (SR): 1.11 µM | GI (NCI-H322M): 6.89 µM | GI (HOP-62): 6.03 µM | GI (HT-29): 1.75 µM | GI (RXF 393): 1.31 µM | GI (Malme-3M): 1.87 µM | Activity (Quadruplex DNA [9]): Active | GI (OVCAR-5): 2.22 µM | GI (Hs-578T): 1.95 µM | GI (MOLT-4): 0.389 µM | GI (OVCAR-3): 2.19 µM
